Results from patent publication US20110256557A1, “IDENTIFYING PARATHYROID HORMONE AGONISTS AND ANTAGONISTS” (DISCOVERYBIOMED, INC., priority 2008, published 2011).

Columns and labels:
β-catenin [1] = experiment: Western blot of cytosolic β-catenin in mouse calvarial primary preosteoblasts; assay type: cell-based; conditions: concentration- and time-dependent
Description: Osteoblasts were isolated by digestion of calvaria of newborn mice as described (Wang et al., J. Clin. Invest. 117:1616-26 (2007)). Briefly, calvaria were incubated with 10 ml of digestion solution containing 1.8 mg/ml of collagenase type I (Worthington Biochemical Corp.; Lakewood, N.J.) for 15 minutes at 37° C. under constant agitation. The supernatant was then harvested, replaced with fresh collagenase and the digestion repeated an additional 4 times. Digestion solutions containing the osteoblasts were pooled together. After centrifugation, osteoblasts were obtained and cultured in α-Minimal Essential Media (MEM) containing 10% FBS and 1% penicillin/streptomycin at 37° C. in a humidified incubator supplied with 5% CO2.
Cells were harvested in cavitation buffer (5 mM HEPES, pH 7.4, 3 mM MgCl2, 1 mM EGTA, 250 mM sucrose) containing protease and phosphatase inhibitors and homogenized by nitrogen cavitation (200 p.s.i., for 5 minutes) in a cell disruption bomb (Parr Instrument Co.; Moline, Ill.). The cell homogenate was centrifuged twice at 700 g for 10 minutes to pellet the nuclei. The supernatant was further centrifuged at 100,000 g (Beckman SW50.1 rotor) for 1 hour to separate the membrane and cytosol fractions, and the resulting membrane pellet was washed three times with cavitation buffer before use in the assays (Zhang et al., Biochem. J. 343:541-9 (1999)). […]

[2] = tested on: phosphorylated LRP6 in osteoblasts; experiment: Immunohistochemistry of phosphorylated LRP6 in femur sections, rats; assay type: in vivo, rat
Description: For the experiments in which rats or mice were administered PTH as single-dose injection, five-month-old male Sprague Dawley rats (Charles River Laboratories; Wilmington, Mass.) or two-month-old male C57BL/J6 mice (Jackson Laboratory; Bar Harbor, Me.) (6 per group) were administered a single dose of either vehicle (1 mM acetic acid in sterile PBS) or PTH (1-34) (Bachem Inc.; Torrance, Calif.) at 40 μg/kg in a volume of 100 μl. In the mouse model, mouse recombinant Wnt3a (R&D Systems; Minneapolis, Minn.) was injected at 25 μg/kg in a volume of 100 μl. All treatments were through bolus intravenous injection via the tail vein. Rats/mice were sacrificed at 0.5, 2, 8 and 24 hours after injection.
Formalin-fixed femur or tibia tissue sections of 5 μm thickness from rats or mice were processed with antigen retrieval and hydrogen peroxide treatment prior to incubation with primary monoclonal antibody specific for β-catenin (BD Biosciences; San Jose, Calif.), goat polyclonal antibody sclerostin (R&D Systems; Minneapolis, Minn.) or rabbit polyclonal phosphorylated LRP6 (Ab1490) for 1 hour at room temperature or overnight at 4° C. […] In the mouse model, numbers of total osteoblasts and numbers of β-catenin-positive osteoblasts were counted in three random high power fields in a 2-mm square, 1 mm distal to the lowest point of the growth plate in the secondary spongiosa. […]

axin-LRP6 binding = experiment: Co-IP of axin binding to LRP6 in HEK293 cells; assay type: cell-based; conditions: co-IP, HEK293 cells
Description: (§1) Cells were harvested in cavitation buffer (5 mM HEPES, pH 7.4, 3 mM MgCl2, 1 mM EGTA, 250 mM sucrose) containing protease and phosphatase inhibitors and homogenized by nitrogen cavitation (200 p.s.i., for 5 minutes) in a cell disruption bomb (Parr Instrument Co.; Moline, Ill.). The cell homogenate was centrifuged twice at 700 g for 10 minutes to pellet the nuclei. The supernatant was further centrifuged at 100,000 g (Beckman SW50.1 rotor) for 1 hour to separate the membrane and cytosol fractions, and the resulting membrane pellet was washed three times with cavitation buffer before use in the assays (Zhang et al., Biochem. J. 343:541-9 (1999)). Immunoprecipitation and Western blot analysis of cell lysates were performed as described previously (Wan et al., Am. J. Pathol. 166:1379-92 (2005)).

β-catenin [3] = experiment: Western blot of cytosolic β-catenin in HEK 293 cells; assay type: cell-based; conditions: HEK 293 cells; concentration- and time-dependent
Description: as §1

[4] = tested on: luciferase reporter bearing TCF/LEF binding elements; experiment: TCF/LEF luciferase reporter assay in UMR-106 cells; assay type: cell-based, rat; conditions: UMR-106 cells, agent alone
Text: HEK293, UMR-106 and mouse embryonic fibroblast (MEF) cells were maintained in Dulbecco's Modified Eagle Medium (DMEM) with 10% Fetal Calf Serum (FCS). Mouse Wnt3a conditioned medium (Wnt3a CM) was produced from mouse L cells stably transfected with mouse Wnt3a (American Type Culture Collection; Manassas, Va.) and control conditioned medium (Control CM) was from non-transfected L cells. IgG, LRP6N-IgG, DKK1, Sclerostin, VSVG-LRP6N and Myc-Fz8CRD conditioned media were produced from HEK 293 cells transfected with the individual plasmids. Transfections were carried out using lipofectamine reagent (Invitrogen; Carlsbad, Calif.). Luciferase assays were carried out in either UMR-106 or HEK 293 cells as described previously (Wan et al., Am. J. Pathol. 166:1379-92 (2005)), with 0.3 μg of TCF-Luc reporter plasmid plus 50 ng of Renilla luciferase plasmid (internal control) per well in the 12-well plate. Experiments were repeated at least three times with triplicate for each experiment.

[5] = tested on: TCF/LEF luciferase reporter; experiment: High-throughput screen validation, TCF/LEF luciferase reporter in osteosarcoma cell line; assay type: cell-based
Description: Osteosarcoma cells were plated in a 96 well plate. The cells were transiently transfected with the TCF/LEF luciferase reporter using LipofectAMINE PLUS (Invitrogen; Carlsbad, Calif.). The cells were incubated overnight at 37° C. in OptiMEM-1 serum-free medium with the transfection reagents. The cells were washed and serum-containing medium was added to the cells for 8 hours. The serum-containing medium was replaced with serum-free medium and the cells were stimulated overnight with PTH and WNT3a. Supernatant from the stimulated cells was collected for detection of osteosclerostin, and the cells were subjected to a luciferase assay as previously described (Wan et al., Am. J. Pathol. 166:1379-92 (2005)).
To determine agonists and antagonists of the additive signaling of the PTH receptor and the WNT receptor, (as well as any co-receptors) in bone cells, a high-throughput screen is designed. […] An osteosarcoma cell line is transiently transfected with a TCF/LEF luciferase reporter. The cells are treated with WNT3a and PTH and luciferase activity is determined (FIG. 46).

Parathyroid hormone [PTH]
levels of β-catenin in the cytosol (β-catenin [1]): enhanced | phosphorylation of LRP6 in preosteoblasts or osteoblasts at the surface of trabecular bone ([2]; single dose of PTH (1-34) 40 μg/kg, antibody specific for phosphorylated PPPSP): stimulated | amount of total LRP6 protein ([2]; single dose, same tissue): remained unchanged | binding of axin to LRP6 (axin-LRP6 binding): rapidly increased | levels of β-catenin in the cytosol (β-catenin [3]): enhanced | transcription of a luciferase reporter bearing TCF/LEF binding elements [4]: stimulated | stimulation of the TCF/LEF luciferase reporter, treatment alone ([5]; 96-well plate): does not stimulate | effect on WNT stimulation of the TCF/LEF luciferase reporter ([5]; PTH and WNT3a treatment): potentiates
